Test results reported in PubChem BioAssay AID248 (DTP/NCI, 2004).
“And” between values parts separate entries of the source, which are not always exact repeats. Equal entries are not always repeated. Inconclusive results and toxic doses are left out. Cut-off read from the data, not from the text of the source: active = T/C of 150% or more; inactive = T/C below 125%.

Test system: L1210 leukemia ip in BDF1 mice, survival T/C
Assay: NCI In Vivo Anticancer Drug Screen. Data for tumor model L1210 Leukemia (intraperitoneal) in B6D2F1 (BDF1) mice
Conditions: endpoint: mean survival time, higher = longer survival
In short: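 Tumor cells were implanted, animals were treated, and survival was followed. The result divides the treated measurement by the vehicle-control measurement.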

[1] = dose: 100.0 mg/kg/injection, schedule: Q01DX005 (ip), vehicle: saline
[2] = dose: 100.0 mg/kg/injection, schedule: Q01DX009 (ip), vehicle: saline
[3] = dose: 200.0 mg/kg/injection, schedule: Q01DX009 (ip), vehicle: saline
[4] = dose: 100.0 mg/kg/injection, schedule: Q04DX003 (ip), vehicle: saline with Tween-80
[5] = dose: 200.0 mg/kg/injection, schedule: Q04DX003 (ip), vehicle: saline with Tween-80
[6] = dose: 400.0 mg/kg/injection, schedule: Q04DX003 (ip), vehicle: saline with Tween-80
[7] = dose: 50.0 mg/kg/injection, schedule: Q01DX001 (ip), vehicle: saline
[8] = dose: 100.0 mg/kg/injection, schedule: Q01DX001 (ip), vehicle: saline
[9] = dose: 200.0 mg/kg/injection, schedule: Q01DX001 (ip), vehicle: saline
[10] = dose: 400.0 mg/kg/injection, schedule: Q01DX001 (ip), vehicle: saline
[11] = dose: 50.0 mg/kg/injection, schedule: Q01DX009 (ip), vehicle: saline
[12] = dose: 100.0 mg/kg/injection, schedule: Q04DX003 (ip), vehicle: saline
[13] = dose: 200.0 mg/kg/injection, schedule: Q04DX003 (ip), vehicle: saline
[14] = dose: 100.0 mg/kg/injection, schedule: Q04DX003 (ip), vehicle: Klucel (hydroxypropylcellulose) (HPC)
[15] = dose: 200.0 mg/kg/injection, schedule: Q04DX003 (ip), vehicle: Klucel (hydroxypropylcellulose) (HPC)
[16] = dose: 400.0 mg/kg/injection, schedule: Q04DX003 (ip), vehicle: Klucel (hydroxypropylcellulose) (HPC)

Measured: T/C

Cc1nn(C2CC(OC(=O)c3ccc([N+](=O)[O-])cc3)C(OC(=O)c3ccc([N+](=O)[O-])cc3)C(COC(=O)c3ccc([N+](=O)[O-])cc3)O2)c(=O)[nH]c1=O (stereo unspecified)
inactive: [1] 100 % of control | dose: 200.0 mg/kg/injection, schedule: Q01DX005 (ip), vehicle: saline 96 % of control

CSc1ccccc1NC(=O)NCCCl
inactive: [2] 100 % of control | [3] 98 % of control

CC(C)OC(=O)C(NC=O)C(C)(C)S (stereo unspecified)
inactive: [4] 93 % of control | [5] 102 % of control | [6] 97 % of control

C(=C\c1nc2ccccc2[nH]1)/c1nc2ccccc2[nH]1
inactive: [7] 108 % of control | [8] 96 % of control | [9] 96 % of control | [10] 106 % of control

COC(=O)C(NC(C)=O)C(C)C (stereo unspecified)
inactive: dose: 6.25 mg/kg/injection, schedule: Q03HX024 (ip), vehicle: saline 97 % of control | dose: 12.5 mg/kg/injection, schedule: Q03HX024 (ip), vehicle: saline 96 % of control | dose: 25.0 mg/kg/injection, schedule: Q01DX001 (ip), vehicle: saline 100 % of control | dose: 25.0 mg/kg/injection, schedule: Q03HX024 (ip), vehicle: saline 89 % of control | [7] 96 % of control | dose: 50.0 mg/kg/injection, schedule: Q03HX024 (ip), vehicle: saline 89 % of control | [8] 101 % of control | dose: 100.0 mg/kg/injection, schedule: Q03HX024 (ip), vehicle: saline 105 % of control | [9] 99 % of control | [10] 106 % of control

CC1OC(O[C@H]2C[C@@H](O)[C@]3(CO)[C@H]4[C@H](O)C[C@]5(C)[C@@H](C6=CC(=O)OC6)CC[C@]5(O)[C@@H]4CC[C@]3(O)C2)C(O)C(O)C1O (stereo partly specified)
inactive: dose: 0.31 mg/kg/injection, schedule: Q01DX009 (ip), vehicle: saline 101 % of control | dose: 0.63 mg/kg/injection, schedule: Q01DX009 (ip), vehicle: saline 101 % of control | dose: 1.25 mg/kg/injection, schedule: Q01DX009 (ip), vehicle: saline 98 % of control | dose: 2.5 mg/kg/injection, schedule: Q01DX009 (ip), vehicle: saline 102 % of control and 108 % of control | dose: 12.5 mg/kg/injection, schedule: Q04DX003 (ip), vehicle: saline 92 % of control | dose: 25.0 mg/kg/injection, schedule: Q04DX003 (ip), vehicle: saline 103 % of control

CC1CCc2ccccc2N1CCN (stereo unspecified)
inactive: dose: 25.0 mg/kg/injection, schedule: Q01DX009 (ip), vehicle: saline 103 % of control | [11] 103 % of control | [2] 97 % of control

CCCCCCc1cc(CN(C2CCCCC2)C2CCCCC2)c(O)cc1O
inactive: [8] 92 % of control | [10] 87 % of control

CC(N)CNc1ccccc1 (stereo unspecified)
inactive: dose: 12.5 mg/kg/injection, schedule: Q04DX003 (ip), vehicle: water 105 % of control | dose: 25.0 mg/kg/injection, schedule: Q04DX003 (ip), vehicle: water 98 % of control | dose: 50.0 mg/kg/injection, schedule: Q04DX003 (ip), vehicle: water 104 % of control

COc1ccc(CN2CCCN(Cc3ccc(OC)cc3OC)C2c2ccccc2O)c(OC)c1
inactive: [7] 97 % of control | [8] 92 % of control | [9] 90 % of control | [10] 101 % of control

O=C(Nc1ccc(F)c([N+](=O)[O-])c1)Nc1ccccc1C(F)(F)F
inactive: dose: 100.0 mg/kg/injection, schedule: Q01DX009 (ip), vehicle: saline with Tween-80 90 % of control | dose: 200.0 mg/kg/injection, schedule: Q01DX009 (ip), vehicle: saline with Tween-80 96 % of control | dose: 400.0 mg/kg/injection, schedule: Q01DX009 (ip), vehicle: saline with Tween-80 97 % of control

Fc1cc(F)c2ncccc2c1
inactive: dose: 12.5 mg/kg/injection, schedule: Q01DX001 (ip), vehicle: carboxymethylcellulose (CMC) 103 % of control | dose: 25.0 mg/kg/injection, schedule: Q01DX001 (ip), vehicle: carboxymethylcellulose (CMC) 98 % of control | dose: 50.0 mg/kg/injection, schedule: Q01DX001 (ip), vehicle: carboxymethylcellulose (CMC) 101 % of control | dose: 75.0 mg/kg/injection, schedule: Q01DX001 (ip), vehicle: carboxymethylcellulose (CMC) 117 % of control | dose: 150.0 mg/kg/injection, schedule: Q01DX001 (ip), vehicle: carboxymethylcellulose (CMC) 118 % of control

NC(=O)c1cc(O)c(Br)c(O)c1
inactive: dose: 100.0 mg/kg/injection, schedule: Q01DX009 (ip), vehicle: other 86 % of control | [12] 98 % of control | dose: 200.0 mg/kg/injection, schedule: Q01DX009 (ip), vehicle: other 100 % of control | [13] 109 % of control | dose: 400.0 mg/kg/injection, schedule: Q01DX009 (ip), vehicle: other 93 % of control | dose: 400.0 mg/kg/injection, schedule: Q04DX003 (ip), vehicle: saline 98 % of control

CC(CN)N(C)C (stereo unspecified)
inactive: [11] 89 % of control | [2] 95 % of control | [12] 93 % of control | [3] 89 % of control | [13] 97 % of control

C1CC2CCC1CNC2
inactive: dose: 50.0 mg/kg/injection, schedule: Q04DX003 (ip), vehicle: saline 104 % of control | [12] 106 % of control

O=C(Nc1cc([N+](=O)[O-])ccc1F)Oc1ccc2ccccc2c1
inactive: [2] 111 % of control | [3] 95 % of control | dose: 400.0 mg/kg/injection, schedule: Q01DX009 (ip), vehicle: saline 106 % of control

CC(C)c1oc(=O)cc2c1C(O)C1OC(=O)C3(C)C(O)C4OC4C2(C)C13 (stereo unspecified)
inactive: dose: 25.0 mg/kg/injection, schedule: Q01DX009 (ip), vehicle: Klucel (hydroxypropylcellulose) (HPC) 109 % of control | dose: 50.0 mg/kg/injection, schedule: Q01DX009 (ip), vehicle: Klucel (hydroxypropylcellulose) (HPC) 116 % of control | dose: 100.0 mg/kg/injection, schedule: Q01DX009 (ip), vehicle: Klucel (hydroxypropylcellulose) (HPC) 106 % of control and 88 % of control

CCSc1ncc(C(N)=O)c(N)n1
inactive: [14] 97 % of control | [15] 100 % of control | [16] 92 % of control

O=C(/C=C/C(=O)N1CCOCC1)N1CCOCC1
inactive: [4] 100 % of control | [5] 104 % of control | [6] 116 % of control

CCCCSc1ncnc2c1ncn2C1CCCCO1 (stereo unspecified)
inactive: [7] 102 % of control | [8] 104 % of control | dose: 100.0 mg/kg/injection, schedule: Q01DX009 (ip), vehicle: saline sonified 94 % of control | [14] 103 % of control | [9] 102 % of control | dose: 200.0 mg/kg/injection, schedule: Q01DX009 (ip), vehicle: saline sonified 90 % of control | [15] 113 % of control | [10] 113 % of control | dose: 400.0 mg/kg/injection, schedule: Q01DX009 (ip), vehicle: saline sonified 113 % of control | [16] 124 % of control

CN(CCc1cn(C2OC(CO)C(O)C(O)C2O)cn1)C(=O)/C=C/c1ccccc1 (stereo unspecified)
inactive: [1] 112 % of control

C/C(=N/O)c1ccc(C)s1
inactive: dose: 100.0 mg/kg/injection, schedule: Q01DX001 (ip), vehicle: carboxymethylcellulose (CMC) 94 % of control | dose: 200.0 mg/kg/injection, schedule: Q01DX001 (ip), vehicle: carboxymethylcellulose (CMC) 100 % of control | dose: 400.0 mg/kg/injection, schedule: Q01DX001 (ip), vehicle: carboxymethylcellulose (CMC) 100 % of control
